Assays:
Assay type in all cases: in vivo, mouse
Conditions in all cases: Mus musculus, iv, mice, i.v.
Male ICR mice [1] = experiment: Suppression of spontaneous activity (SA) in mice
Male ICR mice [2] = experiment: Tail-flick antinociception (TF, % MPE) in mice
Male ICR mice [3] = experiment: Change in rectal temperature (RT) in mice
[4] = 95% confidence limits in parentheses, read-out: ED50 SA (suppression of spontaneous activity)
[5] = 95% confidence limits in parentheses, read-out: ED50 TF (antinociceptive effect in tail flick assay)
[6] = 95% confidence limits in parentheses, read-out: ED50 RT (rectal temperature)

With `CCCCCCC(C)(C)c1cc(O)c(C2CCCC(C)C2)c(O)c1` (mixture of isomers) [O-1657, 2-(3-Methylcyclohexyl)-5-(1′,1′-dimethylheptyl)-resorcinol] as the molecule, how does the ED50 (Male ICR mice [1]; Table 6, read-out: S.A ED50) read?
Its ED50 is 0.13 mg/kg.

What about the ED50 (Male ICR mice [1]; [4]) of the same molecule?
The ED50 was 0.3 µmol/kg.

What about the ED50 (Male ICR mice [2]; Table 6, read-out: T.F. ED50) of the same molecule?
The ED50 was 0.23 mg/kg.

What about the ED50 (Male ICR mice [2]; [5]) of the same molecule?
The ED50 was 0.6 µmol/kg.

And the ED50 (Male ICR mice [3]; Table 6, read-out: R.T. ED50)?
The ED50 was 0.29 mg/kg.

And the ED50 (Male ICR mice [3]; [6])?
The ED50 was 0.9 µmol/kg.

Which results are given for `CCCCCCC(C)(C)c1cc(O)c([C@H]2CCCC(C)C2)c(O)c1` (single isomer, unassigned) [O-1826]?
ED50 (Male ICR mice [1]; Table 6, read-out: S.A ED50): 0.915 mg/kg; ED50 (Male ICR mice [1]; [4]): 2.7 µmol/kg; ED50 (Male ICR mice [2]; Table 6, read-out: T.F. ED50): 0.821 mg/kg; ED50 (Male ICR mice [2]; [5]): 2.4 µmol/kg; ED50 (Male ICR mice [3]; Table 6, read-out: R.T. ED50): 1.16 mg/kg; ED50 (Male ICR mice [3]; [6]): 3.6 µmol/kg

`CCCCCCC(C)(C)c1ccc(-c2cc(C)ccc2C(C)C)c(O)c1` [O-1376, 3-1′,1′-Dimethylheptyl-6-(2-isopropyl-5-methylphenyl)phenol] was tested. Which ED50 (Male ICR mice [1]; Table 6, read-out: S.A ED50) did it give?
The ED50 was 2.94 mg/kg.

And the ED50 (Male ICR mice [1]; [4])?
The ED50 was 8.5 µmol/kg.

And the ED50 (Male ICR mice [2]; Table 6, read-out: T.F. ED50)?
Its ED50 is 1.97 mg/kg.

And the ED50 (Male ICR mice [2]; [5])?
Its ED50 is 5.7 µmol/kg.

And the ED50 (Male ICR mice [3]; Table 6, read-out: R.T. ED50)?
The ED50 was 0.822 mg/kg.

What about the ED50 (Male ICR mice [3]; [6]) of the same molecule?
Its ED50 is 2.3 µmol/kg.

For `CCCCCCC(C)(C)c1cc(O)c(C2CCCCC2)c(O)c1` [O-1422, Cyclohexyl-5-(1′,1′-dimethylheptyl)-resorcinol], which ED50 (Male ICR mice [1]; Table 6, read-out: S.A ED50) is on record?
Its ED50 is 0.379 mg/kg.

What about the ED50 (Male ICR mice [1]; [4]) of the same molecule?
The ED50 was 0.1 µmol/kg.

What about the ED50 (Male ICR mice [2]; Table 6, read-out: T.F. ED50) of the same molecule?
The ED50 was 0.241 mg/kg.

What about the ED50 (Male ICR mice [2]; [5]) of the same molecule?
Its ED50 is 0.6 µmol/kg.

What about the ED50 (Male ICR mice [3]; Table 6, read-out: R.T. ED50) of the same molecule?
Its ED50 is 0.194 mg/kg.

What about the ED50 (Male ICR mice [3]; [6]) of the same molecule?
Its ED50 is 0.6 µmol/kg.

Which results are given for `CCCCCCC(C)(C)c1cc(O)c(C2=CCCCC2)c(O)c1` [O-1423]?
ED50 (Male ICR mice [1]; Table 6, read-out: S.A ED50): 3.92 mg/kg; ED50 (Male ICR mice [1]; [4]): 12 µmol/kg; ED50 (Male ICR mice [2]; Table 6, read-out: T.F. ED50): 2.86 mg/kg; ED50 (Male ICR mice [2]; [5]): 9 µmol/kg; ED50 (Male ICR mice [3]; Table 6, read-out: R.T. ED50): 2.94 mg/kg; ED50 (Male ICR mice [3]; [6]): 9 µmol/kg

Which ED50 (Male ICR mice [1]; Table 6, read-out: S.A ED50) does the source give for `CCCCCCC(C)(C)c1cc(O)c(C2CCSCC2)c(O)c1` [O-1425] here?
The ED50 was 5.82 mg/kg.

What about the ED50 (Male ICR mice [1]; [4]) of the same molecule?
The ED50 was 17 µmol/kg.

And the ED50 (Male ICR mice [2]; Table 6, read-out: T.F. ED50)?
The ED50 was 5.05 mg/kg.

What about the ED50 (Male ICR mice [2]; [5]) of the same molecule?
The ED50 was 15 µmol/kg.

And the ED50 (Male ICR mice [3]; Table 6, read-out: R.T. ED50)?
The ED50 was 4.53 mg/kg.

And the ED50 (Male ICR mice [3]; [6])?
The ED50 was 13 µmol/kg.

For `CCCCCCC(C)(C)c1cc(O)c(C2CCCCC2C)c(O)c1` (stereo not drawn) [O-1658, 2-(2-Methylcyclohexyl)-5-(1′,1′-dimethylheptyl)-resorcinol], which ED50 (Male ICR mice [1]; Table 6, read-out: S.A ED50) is on record?
Its ED50 is 0.06 mg/kg.

What about the ED50 (Male ICR mice [1]; [4]) of the same molecule?
Its ED50 is 0.2 µmol/kg.

What about the ED50 (Male ICR mice [2]; Table 6, read-out: T.F. ED50) of the same molecule?
The ED50 was 0.09 mg/kg.

And the ED50 (Male ICR mice [2]; [5])?
Its ED50 is 0.3 µmol/kg.

What about the ED50 (Male ICR mice [3]; Table 6, read-out: R.T. ED50) of the same molecule?
Its ED50 is 0.12 mg/kg.

And the ED50 (Male ICR mice [3]; [6])?
The ED50 was 0.3 µmol/kg.

Which results are given for `CCCCCCC(C)(C)c1cc(O)c(C2CCC(C)CC2)c(O)c1` (stereo not drawn) [O-1659, 2-(4-Methylcyclohexyl)-5-(1′,1′-dimethylheptyl)-resorcinol]?
ED50 (Male ICR mice [1]; Table 6, read-out: S.A ED50): 1.65 mg/kg; ED50 (Male ICR mice [1]; [4]): 4.8 µmol/kg; ED50 (Male ICR mice [2]; Table 6, read-out: T.F. ED50): 1.35 mg/kg; ED50 (Male ICR mice [2]; [5]): 3.9 µmol/kg; ED50 (Male ICR mice [3]; Table 6, read-out: R.T. ED50): 1.12 mg/kg; ED50 (Male ICR mice [3]; [6]): 3.3 µmol/kg

How did the ED50 (Male ICR mice [1]; Table 6, read-out: S.A ED50) turn out when `CCCCCCC(C)(C)c1cc(O)c(C2C3CC4CC(C3)CC2C4)c(O)c1` (stereo not drawn) [O-1660, 2-(2-Adamantyl)-5-(1′,1′-di-methylheptyl)-resorcinol] was run?
Its ED50 is 1.27 mg/kg.

And the ED50 (Male ICR mice [1]; [4])?
The ED50 was 3.5 µmol/kg.

What about the ED50 (Male ICR mice [2]; Table 6, read-out: T.F. ED50) of the same molecule?
Its ED50 is 0.911 mg/kg.

And the ED50 (Male ICR mice [2]; [5])?
The ED50 was 2.4 µmol/kg.

And the ED50 (Male ICR mice [3]; Table 6, read-out: R.T. ED50)?
The ED50 was 1.73 mg/kg.

What about the ED50 (Male ICR mice [3]; [6]) of the same molecule?
The ED50 was 4.6 µmol/kg.

How did the ED50 (Male ICR mice [1]; Table 6, read-out: S.A ED50) turn out when `CCCCCCC(C)(C)c1cc(O)c(C2CCSC2)c(O)c1` (stereo not drawn) [O-1661, 2-(Tetrahydrothiophen-3-yl)-5-(1′,1′-dimethylheptyl)-re-sorcinol] was run?
Its ED50 is 2.65 mg/kg.

And the ED50 (Male ICR mice [1]; [4])?
The ED50 was 24 µmol/kg.

What about the ED50 (Male ICR mice [2]; Table 6, read-out: T.F. ED50) of the same molecule?
Its ED50 is 4.39 mg/kg.

And the ED50 (Male ICR mice [2]; [5])?
Its ED50 is 14 µmol/kg.

And the ED50 (Male ICR mice [3]; Table 6, read-out: R.T. ED50)?
Its ED50 is 7.78 mg/kg.

What about the ED50 (Male ICR mice [3]; [6]) of the same molecule?
Its ED50 is 24 µmol/kg.

`CCCC(C)(C)c1cc(O)c(C2CCCC(C)C2)c(O)c1` (stereo not drawn) [O-1890, 2-(3-Methylcyclohexyl)-5-(1′,1′-dimethylbutyl)-resorcinol] was tested. Which ED50 (Male ICR mice [1]; Table 6, read-out: S.A ED50) did it give?
Its ED50 is 20 mg/kg.

What about the ED50 (Male ICR mice [1]; [4]) of the same molecule?
The ED50 was 69 µmol/kg.

What about the ED50 (Male ICR mice [2]; Table 6, read-out: T.F. ED50) of the same molecule?
Its ED50 is 14 mg/kg.

What about the ED50 (Male ICR mice [2]; [5]) of the same molecule?
The ED50 was 48 µmol/kg.

What about the ED50 (Male ICR mice [3]; Table 6, read-out: R.T. ED50) of the same molecule?
The ED50 was 21 mg/kg.

What about the ED50 (Male ICR mice [3]; [6]) of the same molecule?
The ED50 was 72 µmol/kg.
